Measurements: patent publication US6476254B1, “Alkoxylated fatty alcohol dicarboxylic acid esters” (Croda Inc., priority 1998, dated 2002)

What was measured:
[1] = Pigment wetting: viscosity of ester/pigment slurry; assay type: physicochemical; settings: for viscosity (pigment wetting): FIG. 1B, dye slurry, 65% ester, 35% pigment, after standing five minutes
Method: Pigment wetting properties are determined by preparing a dye slurry and measuring viscosity. For example, a slurry can be prepared using an alkoxylated fatty alcohol dicarboxylic acid ester of the present invention mixed with 35 percent mica or any dye. The viscosity of the slurry is determined after allowing the slurry to stand for five minutes. The lower the viscosity, the better the pigment wetting properties of the ester. Desirably, in accordance with the present invention, viscosity of the resulting dye slurry will be below about 20,000 cps, preferably between about 500 and 15,000 cps and most preferably between about 500 and 5,000 cps based on a 65% ester, 35% pigment mixture (measured in weight percent). Viscosity will vary if a different testing mixture is used.

[2] = Skin spread factor (product spread on forearm circle, 15 minutes, FD&C Blue No. 1 staining); assay type: in vivo; settings: resulting area divided by initial area after fifteen minute spread; FIG. 1A
Method: The skin spread factor is determined by applying, for example, 5 microliters of a product to a 3.14 cm diameter circle on the volar surface of the forearm. The product is spread evenly within the circle and allowed to spread for a fifteen minute period. The test site and surrounding area of the forearm is then sprayed with a 1 percent solution of FD&C Blue No. 1. The area not stained by the blue dye indicates the area onto which the product spread. The skin spread factor is obtained by dividing the resulting area by the initial area. In accordance with the present invention, formulations have a skin spread factor of less than about 8, preferably less than about 5.

Compound	viscosity (pigment wetting) [1]	skin spread factor [2]	viscosity ([1]; test mixture not stated at this place)
CCCCCCCC/C=C\CCCCCCCCCCCC(=O)OCCCCCCCCCCCCCCCCCCCCCCCC [LGE, Lignoceryl Erucate]	> 15,000 cps	relatively low	
CCCCCCCCCCCCCOC(=O)C(C)(C)C [TDNP, Tridecyl Neopentanoate]	under 1000 cps	very high	
Bis (PPG2, PEG10 Myristyl) adipate		2.9	18,000 cps
Di-PPG-3 Myristyl Ether Adipate [DP3A]	about 1200 cps	about 3.8	
Pentaerythrityl Tetraisostearate [PTIS]	~20,000 cps	very low	
